Consider four compounds from patent US20060286046A1, “Skin care compositions” (priority 2005, published 2006).

What all share (assay type): cell-based, human
The test system of assay [1] is JEG-3 cells. The experiment in a line: Viability experiments (Alamar Blue and CFDA-AM) after simulated solar radiation (SSR) exposure. The following applies: SSR 16 hours. Here is the method: (§1) JEG-3 cells, a human placental choriocarcinoma cell line of epithelial origin, were grown and maintained at 37° C., 5% CO2 in 75 mm^2 culture flasks until a confluent monolayer was formed. Cells were then removed, washed, re-suspended, and counted on a hemocytometer, allowing for the concentration to be adjusted to 30,000 cells/mL. Aliquots of 0.2 mL of the cell solution were added into each well of a 96 well micro-plate. The cells were incubated at 37° C., 5% CO2 for 48 hours prior to treatment to allow for a confluent monolayer to form. The media was aspirated off and new media with test compounds were added at various concentrations.
(§2) All treatments were made in MEM without FBS. The anti-oxidants were added directly to the medium. The cells were then incubated for 16 hours at 37° C./5% CO2 under simulated solar radiation (SSR) conditions, with a UVB:UVA:visible light ratio of 0.3:5.52:96 mmol m−2 s−1 (total fluence rate: 102 mmol m−2 s−1, which is about 5% of full sunlight).
Two viability experiments were done at the end of the incubation periods (Dark or SSR exposure). Alamar Blue™ is a metabolic (primarily mitochondrial) activity indicator that requires the reducing power of the cell to transform the dye from non-fluorescent to fluorescent. Carboxy-fluorescein diacetate (CFDA-AM) is also a fluorescent dye that requires cellular esterases inside a cell to become fluorescent. The presence of an intact membrane allows the CFDA-AM to concentrate and give a higher reading than may occur outside the cell. Both dyes were combined in phosphate buffered saline with glucose (PBSG) buffer and added to the microplate wells after the media (MEM plus treatment) was removed. […] The plates were incubated for 30 minutes at 37° C./5% CO2 and were then read on a fluorimeter (PerSeptive Biosystems Cytofluor 4000) with excitation and emission, respectively, set at 530 nm and 590 nm for Alamar Blue™ and 485 nm and 530 nm for CFDA-AM. Because of the different excitation and emission wavelengths as well as little cross-reactivity, both dyes can be used simultaneously. The results were calculated as a percentage of the control value.

Assay [2] relates to JEG-3 cells. The experiment in a line: Metabolic activity (Alamar Blue) after dark exposure. The following applies: incubated in the dark for 24 hours; FIG. 1. Here is the method:
Alamar Blue™ is a metabolic activity indicator that requires the reducing power of the cell to transform the dye from the non-fluorescent to the fluorescent. Decreased metabolic activity of a cell is generally associated with cell damage due to a variety of stressors.
JEG-3 cells, a human placental choriocarcinoma cell line of epithelial origin, were grown and maintained at 37° C., 5% CO2 in 75 mm^2 culture flasks until a confluent monolayer was formed. Cells were then removed, washed, re-suspended, and counted on a hemocytometer, allowing for the concentration to be adjusted to 30,000 cells/mL. Aliquots of 0.2 mL of the cell solution were added into each well of a 96 well micro-plate. The cells were incubated at 37° C., 5% CO2 for 48 hours prior to treatment to allow for a confluent monolayer to form. […]
Two viability experiments were done at the end of the incubation periods (Dark or SSR exposure). […] The presence of an intact membrane allows the CFDA-AM to concentrate and give a higher reading than may occur outside the cell. […] The plates were incubated for 30 minutes at 37° C./5% CO2 and were then read on a fluorimeter (PerSeptive Biosystems Cytofluor 4000) with excitation and emission, respectively, set at 530 nm and 590 nm for Alamar Blue™ and 485 nm and 530 nm for CFDA-AM. […] The results were calculated as a percentage of the control value.
For orientation: Alamar Blue is a resazurin reagent that responds to reducing activity.

Assay [3] deals with JEG-3 cells. Briefly: Reactive oxygen species detection (H2DCFDA) after SSR exposure. The note with it: SSR 16 hours; FIG. 4. Here is the method:
as §1, §2
To determine the levels of ROS generated in the cell system, another fluorescent probe, H2DCFDA, was used. After the 16-hour incubation period under SSR, the media was removed. The probe was added to PBSG in a ratio of 1 μl/ml for a final concentration of 4 nM according to manufacturer instructions. From this mixture, 200 μl/well was added and the plate read on the Cytofluor 4000 at 485 nm excitation and 530 nm emission for 4 hours with readings taken every hour. Results are stated in relative fluorescence units representing the fluorescent product, dichlorofluorescein (DCF). The results were calculated as a percentage of the dark control.

For `N[C@@H](CCC(=O)N[C@@H](CS)C(=O)NCC(=O)O)C(=O)O` [GSH, glutathione], the “protection of cell viability” value with JEG-3 cells [1] (10 mM) is reported as “complete protection”.
As to `CC(=O)N[C@@H](CS)C(=O)O` [NAC, N-acetylcysteine], the “metabolic activity compared to control cells” value in the assay on JEG-3 cells [2] is reported as “did not differ significantly from control”. Also, in the assay with JEG-3 cells [1] (10 mM), the “protection of cell viability” value is reported as “complete protection”. For the same compound, in the assay with JEG-3 cells [3], the “ROS levels (DCF production)” value is recorded as “decreased dye levels (DCF production)” and the “protective effect on ROS compared to other antioxidants” value is “superior to ascorbate but not as great as GSH”.
Take `O=C1O[C@H]([C@@H](O)CO)C(O)=C1O` [ascorbate, ascorbic acid]: in the assay on JEG-3 cells [1] (10 mM), the “protection of cell viability” value is given as “only partial protection”.
Turning to `NCCC(=O)N[C@@H](Cc1cnc[nH]1)C(=O)O` [carnosine, L-carnosine], the “metabolic activity compared to control cells” value with JEG-3 cells [2] is recorded as “did not differ significantly from control”. The “protection of cell viability” value with JEG-3 cells [1] (10 mM) is on record as “only partial protection”; in the assay with JEG-3 cells [1] (all concentrations) it was “only provided for partial protection of cell viability”. The “ROS levels (DCF production)” value in the assay with JEG-3 cells [3] is recorded as “did not decrease ROS levels”.
